“Also recorded” adds a separate entry of the source.
Legend:
ICR mice [1] = test: Biopotency in ICR mice against insulin reference standard, chapter <1211> of Chinese Pharmacopeia (blood glucose 40 min after injection); type: in vivo; conditions: low and high dosing solutions 0.05 and 0.1 IU/mL, blood 40 minutes after administration, FIG. 7
Experimental: The biopotency of the eight insulin analogs was determined by comparison with the insulin reference standard following chapter <1211> of Chinese Pharmacopeia. In particular, the insulin analogs and insulin reference standard were prepared with either diluent 1 or diluent 2. Diluent 1 comprises 0.9% sodium chloride at a pH of 2.5 (adjusted with HCl) and 0.2% phenol. Diluent 2 comprises 0.9% sodium chloride at a pH of 2.5 (adjusted with HCl). The insulin reference standard (27.2 IU/mg) and the insulin analogs (calculated as 25 IU/mg) were prepared with diluent 1. In addition, low- and high-dosing solutions (0.05 IU/mL and 0.1 IU/mL, respectively) of insulin reference standard and test analogs were prepared with diluent 2. Following chapter <1211> of Chinese Pharmacopeia, ICR mice (25-28 g, 6 animals per group) were injected with 0.2-0.3 mL of low and high dosing solution of the eight insulin analogs and insulin standard. Low and high doses of insulin standard and insulin analogs were administered to the mice following parallel design/protocol. […] The glucose concentration of each blood sample was determined by the glucose oxidase-peroxidase method (Roche blood glucose test strips). […] FIG. 6 summarizes the relative biopotency of the insulin analogs by comparing the calculated biopotency and measured biopotency.

Sprague-Dawley (SD) rats [2] = test: Glucose levels in non-fasted Sprague-Dawley rats after subcutaneous injection; type: in vivo; conditions: for duration of decrease in glucose levels compared to rats injected with Degludec: over 120 hours; for glucose area under the curve (AUC) values: FIG. 9 (0-96 hour) and FIG. 15 (0-72 hour)
Experimental: (§1) Male Sprague-Dawley (SD) rats at the age of 8-10 weeks old were administered a dose of 175 nmol-200 nmol insulin analogs 1, 2, 3, 4, APi3545, APi3546, APi3547, and APi3549 through subcutaneous injection. Insulin Degludec was used as a positive control. A vehicle control consisted of glycerol (19.6 mg), metacresol (1.72 mg), phenol (1.50 mg), zinc acetate ([…]), and WFI to 1 mL.

Sprague-Dawley (SD) rats [3] = test: c-peptide levels in non-fasted Sprague-Dawley rats after subcutaneous injection; type: in vivo; conditions: 175 nmol-200 nmol s.c.; for duration of c-peptide level compared to rats injected with Degludec: over 120 hours
Experimental: as §1

[4] = Body weight of non-fasted Sprague-Dawley rats after subcutaneous injection; type: in vivo; conditions: SD rats, over 120 hours, FIG. 13 and FIG. 16
Experimental: as §1

[5] = Body weight of db/db mice measured daily for 3 days after single subcutaneous dose; type: in vivo; conditions: Day 1-3, 1.5 IU/mg Degludec, all dose levels of Analog #1, FIGS. 3A-3B
Experimental: Accordingly, the ability of insulin analog 1 (FIG. 1A) to control the glucose profile in a db/db type II diabetes model was tested. As a control, wild type m/m mouse strain was included in the study. Mice were male, between ages 6-8 weeks, and the total group size was 8. The insulin analogs were delivered as a subcutaneous single dose. The dose volume was 5 mL/Kg ([…] per 25 g mouse). Mice were injected at the following dose levels: Degludec 1.5 IU/kg (model) and insulin analog #1 (FIG. 1A) at 0.04 mg/kg, 0.12 mg/kg, or 0.36 mg/kg. All insulin compounds (Degludec and analog #1) were diluted with 0.9% sodium chloride (vehicle, normal saline). Vehicle controls were comprised of 0.9% sodium chloride.
(§2) Blood collection for glucose plasma concentration measurements occurred at Oh (0-60 min before dosing), 0.5 h, 1 h, 2 h, 4 h, 6 h, 8 h, 10 h, 12 h, 18 h, 24 h, 30 h after the single dose. Moreover, the mouse body weight was measured daily for 3 days.

db/db mice = test: Glucose profile after single subcutaneous dose in db/db type II diabetes mouse model; type: in vivo
Excerpt: Murine db/db murine strain is a well-accepted type II diabetes model that recapitulates most aspects of human type II diabetes. In particular, db/db mice carry mutations in the leptin receptor that lead to obesity, decreased insulin receptor sensitivity, and subsequent increased levels of blood glucose, decreased β-cell function, and elevated HBA1c levels. Like human Type II diabetes, the diabetic condition in db/db mice is progressive. Animals have near normal or slightly elevated plasma glucose (PG) and relatively normal β-cell function at 6 weeks of age. Fasting plasma glucose (FPG) levels gradually elevate over several weeks and β-cell function declines such that by about 16 weeks of age FPG is very high (>400 mg/dL) and j-cell function has entirely degenerated. The db/db mouse model may be used in an acute setting but is more typically used in a chronic setting to evaluate a test compound's cumulative action over several weeks of treatment. The variability is reasonably low such that good statistically significant effects are seen with validating compounds with group sizes of about 8 animals.
Accordingly, the ability of insulin analog 1 (FIG. 1A) to control the glucose profile in a db/db type II diabetes model was tested. As a control, wild type m/m mouse strain was included in the study. Mice were male, between ages 6-8 weeks, and the total group size was 8. The insulin analogs were delivered as a subcutaneous single dose. The dose volume was 5 mL/Kg (125 L per 25 g mouse). […] All insulin compounds (Degludec and analog #1) were diluted with 0.9% sodium chloride (vehicle, normal saline). Vehicle controls were comprised of 0.9% sodium chloride.
as §2

IGF-1R = biological target: T1, IGF-1R (Homo sapiens, UniProt P08069); test: IGF-1R activation in IGF-1R (Luc) HEK293 reporter cells; type: cell-based; conditions: up to 4 μg/mL (1.6 μM) concentration
T1 construct: expressed in transfected cells; host or cells: IGF-1R (Luc) HEK293 reporter cells
T1 sequence (P08069 31-736 limits assumed): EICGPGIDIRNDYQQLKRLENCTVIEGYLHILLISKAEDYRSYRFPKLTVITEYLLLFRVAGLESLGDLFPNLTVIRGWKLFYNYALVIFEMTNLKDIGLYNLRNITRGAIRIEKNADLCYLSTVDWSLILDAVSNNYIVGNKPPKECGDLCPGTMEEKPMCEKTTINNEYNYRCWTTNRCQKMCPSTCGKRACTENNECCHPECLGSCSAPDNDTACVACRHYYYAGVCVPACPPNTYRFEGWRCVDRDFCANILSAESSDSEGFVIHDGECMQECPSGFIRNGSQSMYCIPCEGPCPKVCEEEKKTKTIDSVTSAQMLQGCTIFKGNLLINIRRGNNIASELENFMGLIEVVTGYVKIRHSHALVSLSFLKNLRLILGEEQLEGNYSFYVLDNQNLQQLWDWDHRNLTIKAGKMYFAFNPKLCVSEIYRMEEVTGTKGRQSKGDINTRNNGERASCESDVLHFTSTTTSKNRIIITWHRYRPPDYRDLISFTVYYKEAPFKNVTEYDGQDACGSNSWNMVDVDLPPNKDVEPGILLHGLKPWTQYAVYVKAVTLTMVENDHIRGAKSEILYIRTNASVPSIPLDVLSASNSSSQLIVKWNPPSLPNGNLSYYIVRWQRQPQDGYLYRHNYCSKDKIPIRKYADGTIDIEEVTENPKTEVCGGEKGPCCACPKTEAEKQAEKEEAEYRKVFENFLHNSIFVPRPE
T1 sequence (P08069 741-1367 limits assumed): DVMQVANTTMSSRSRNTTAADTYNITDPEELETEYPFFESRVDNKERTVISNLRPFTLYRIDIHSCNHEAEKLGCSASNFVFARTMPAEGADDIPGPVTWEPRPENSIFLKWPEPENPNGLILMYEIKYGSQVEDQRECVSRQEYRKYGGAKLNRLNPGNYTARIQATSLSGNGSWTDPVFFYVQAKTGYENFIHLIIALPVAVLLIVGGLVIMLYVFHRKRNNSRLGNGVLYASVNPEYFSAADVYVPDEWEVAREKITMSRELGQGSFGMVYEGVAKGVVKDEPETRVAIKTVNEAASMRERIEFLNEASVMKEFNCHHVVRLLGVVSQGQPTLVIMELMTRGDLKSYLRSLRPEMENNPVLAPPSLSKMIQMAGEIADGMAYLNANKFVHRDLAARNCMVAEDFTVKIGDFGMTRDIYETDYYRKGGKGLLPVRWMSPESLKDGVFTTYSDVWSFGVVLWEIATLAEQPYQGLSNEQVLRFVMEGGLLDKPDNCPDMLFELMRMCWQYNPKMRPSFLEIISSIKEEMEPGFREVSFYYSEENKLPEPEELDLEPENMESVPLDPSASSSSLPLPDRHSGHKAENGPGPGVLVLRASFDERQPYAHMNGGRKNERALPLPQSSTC
Excerpt: Insulin-like growth factor (IGF-1R) is a tyrosine kinase type receptor that regulates cell growth and proliferation and can be activated by IGF-1, IGF-2, and insulin. […]

ICR mice [6] = conditions: reference standard as labelled; cited from earlier work
[7] = SD rats, 175 nmol-200 nmol s.c.

Substance | duration of decrease in glucose levels compared to rats injected with Degludec (Sprague-Dawley (SD) rats [2]; [7]) | duration of c-peptide level compared to rats injected with Degludec (Sprague-Dawley (SD) rats [3]) | rate of body weight increase compared to rats injected with Degludec [4] | glucose area under the curve (AUC) values (Sprague-Dawley (SD) rats [2]; SD rats) | other results
APi3545: A-chain SEQ ID NO: 11 (A14 Aad), B-chain SEQ ID NO: 16 (B16 His(5-I), B25 Ala(4-thiazoyl)); structure FIG. 1H | longer lasting decrease in glucose levels | maintained the level of c-peptide for a longer time | – | – | glucose lowering effect / biopotency measured in ICR mice (ICR mice [1]): most active; duration of action among insulin analogs tested (Sprague-Dawley (SD) rats [2]; structure-activity relationship (Example 5)): most long-acting insulin analog tested; time undetectable c-peptide level was maintained (Sprague-Dawley (SD) rats [3]): up to 72 hours
APi3546: A-chain SEQ ID NO: 11 (A14 Aad), B-chain SEQ ID NO: 18 (B16 His(5-I), B25 3-Pal); structure FIG. 1I | longer lasting decrease in glucose levels | maintained the level of c-peptide for a longer time | lower rate of body weight increase | – | –
Degludec [reference compound] | – | – | – | – | effect on animal body weight [5]: no significant effect
insulin analog 1: A-chain SEQ ID NO: 3 (A14 Gla), B-chain SEQ ID NO: 4 (B16 and B25 His(3-Me)); structure FIG. 1A | longer lasting decrease in glucose levels | maintained the level of c-peptide for a longer time | lower rate of body weight increase | – | glucose profile compared to db/db vehicle control (db/db mice; 0.12 mg/kg, s.c. single dose, 2, 4, 6 and 8 hr time points, FIG. 2): statistically significantly lower; response (glucose level decrease) versus dose (db/db mice; 0.36 mg/kg, 0.12 mg/kg and 0.04 mg/kg doses): dose proportional; glucose profile compared to db/db vehicle control (db/db mice; 0.36 mg/kg, entire time course starting from 2 hr time point): statistically lower; glucose profile compared to db/db vehicle control (db/db mice; 0.36 mg/kg, s.c. single dose, 2, 4, 6 and 8 hr time points, FIG. 2): statistically significantly lower; effect on animal body weight [5]: no significant effect; IGF-1R activation (IGF-1R; FIG. 19, listed as 1): none of insulin analogs 1, 2, 3, and 4 showed IGF-1R activation; also recorded: lack of IGF-1R activation
insulin analog 2: A-chain SEQ ID NO: 3 (A14 Gla), B-chain SEQ ID NO: 6 (B16 and B25 Pal, B28 Pro); structure FIG. 1B | – | maintained the level of c-peptide for a longer time | lower rate of body weight increase | follow the order of their specific activities | glucose lowering effect / biopotency measured in ICR mice (ICR mice [1]): most active; duration of decrease in glucose levels compared to rats injected with Degludec (Sprague-Dawley (SD) rats [2]; SD rats, 175 nmol-200 nmol s.c., listed as 2): longer lasting decrease in glucose level; c-peptide lowering effect among analogs tested (Sprague-Dawley (SD) rats [3]): most profound and longest-lasting c-peptide lowering effect; IGF-1R activation (IGF-1R; FIG. 19, listed as 2): none of insulin analogs 1, 2, 3, and 4 showed IGF-1R activation; also recorded: lack of IGF-1R activation
insulin analog 3: A-chain SEQ ID NO: 3 (A14 Gla), B-chain SEQ ID NO: 8 (B16 and B25 Pal, B28 Hyp); structure FIG. 1C | longer lasting decrease in glucose levels | maintained the level of c-peptide for a longer time | – | follow the order of their specific activities | magnitude of glucose lowering effect among analogs tested (Sprague-Dawley (SD) rats [2]; [7]): most profound glucose lowering effect; IGF-1R activation (IGF-1R; FIG. 19, listed as 3): none of insulin analogs 1, 2, 3, and 4 showed IGF-1R activation; also recorded: lack of IGF-1R activation
insulin analog 4: A-chain SEQ ID NO: 3 (A14 Gla), B-chain SEQ ID NO: 10 (B16 and B25 Pal, B28 Pip); structure FIG. 1D | longer lasting decrease in glucose levels | maintained the level of c-peptide for a longer time | lower rate of body weight increase | follow the order of their specific activities | IGF-1R activation (IGF-1R; FIG. 19, listed as 4): none of insulin analogs 1, 2, 3, and 4 showed IGF-1R activation; also recorded: lack of IGF-1R activation
insulin reference standard: insulin reference standard (27.2 IU/mg) of chapter <1211> of Chinese Pharmacopeia biopotency test | – | – | – | – | potency of insulin reference standard (ICR mice [6]): 27.2 IU/mg
